Experimental data from ChEMBL document CHEMBL3507680, “University of Dundee, Gates Library screen for HepG2 cell viability”.

Test: Human HepG2 cell viability assay in 384 well format
Type: toxicity, cell-based
Design: dose 125 nL, time 70.5 hour; concentration not given beside the values
Conditions: HepG2 cells, read-out: Inhibition

| Compound | cytotoxicity at 70.5 h |
| --- | --- |
| O=C(Nc1ccn(Cc2cccc3cccnc23)n1)C1COCCO1 (stereo not given) | -8.35% |
| O=C(Cn1cc(I)cn1)N1CCc2ccccc2C1 | -3.15% |
| CCc1cnc(CN(C)C2CCN(CCS(C)(=O)=O)C2)o1 (stereo not given) | -6.45% |
| O=C(NCc1nnc2n1CCCCC2)N(Cc1ccncc1)C1CC1 | -4.16% |
| CCc1nnc(CNC2CCc3nc(C(C)C)nn3C2)o1 (stereo not given) | 0.155% |
| Cc1cn2c(CN(C)C(=O)c3ncoc3C)c(C)nc2s1 | -0.848% |
| CCSCCn1cc(-c2ncc[nH]2)nn1 | -17.4% |
| CC(C)(C)c1nc(CNc2ccccc2SCCC(N)=O)cs1 | -107% |
| CCN1C[C@@H]2CN(C(=O)c3cccn3C)C[C@@H]2C1=O | 8.28% |
| Cc1cnc(NCc2cnn(C)c2)nc1-c1cnn(C)c1 | 13.5% |
| CN1CC(=O)N(c2cnn(C)c2)CC12CCN(Cc1ccccc1)C2 (stereo not given) | 0.248% |
| CC(=O)c1c(O)n(C)c2ccc(C)cc12 | 1.11% |
| Cc1noc(C)c1C(=O)NCCN1CCN(c2ccccc2)CC1 | 1.76% |
| CCc1ccc(CNC(=O)CCNS(=O)(=O)c2cn(C)c(C)n2)s1 | -7.93% |
| CN(C)C1CC2(CCN(C(=O)NC3CC3)CC2)c2ccccc21 (stereo not given) | -7.23% |
| CN1CCN(C(=O)c2ccc3c(c2)[nH]c(=O)n3C2CCCC2)CC1 | 9.54% |
| Cc1nc2c(C#N)cnn2c(C)c1CCC(=O)N(C)C(C)C(C)C (stereo not given) | -11.8% |
| O=C1CCCCCN1Cc1nc(C2(c3ccc(F)cc3)CCOC2)no1 (stereo not given) | 18.4% |
| CCn1nc2c(cc1=O)CN(c1nc3ccccc3s1)CC2 | 16.9% |
| Cc1nc(-c2ccc(S(=O)(=O)N3CCCCC3)cc2)co1 | -8.94% |
| Cc1noc(C)c1CN1CCc2ncnc(-c3ccncc3)c2CC1 | 42.6% |
| O[C@@H]1CCN(CC2CCOC2)[C@H]1Cc1ccccc1 (stereo not given in full) | -3.68% |
| CN(C)C(=O)Cc1nc(CN2CCCCC2Cn2cncn2)cs1 (stereo not given) | 23.2% |

| Compound | cytotoxicity at 70.5 h |
| --- | --- |
| O=C(c1cccs1)N1CC(Oc2ccccc2Cl)C1 | -0.814% |
| CCn1cc2c(n1)CN(Cc1sccc1C)CC2COCC1CC1 (stereo not given) | -7.71% |
| O=C(NCCCN1CCCC1=O)Nc1ccc(Br)cc1Cl | -3.68% |
| Cc1cc(C)n(CC2CN(c3ncnc4[nH]ccc34)CCO2)n1 (stereo not given) | 1.04% |
| COCCCN(Cc1cc(O)nc2ccccc12)C(=O)NC(C)C | -13.5% |
| CN1CCCN(C(=O)c2cc(-c3cc[nH]n3)n3ccccc23)CC1 | -1.54% |
| COc1ccc(-c2nnsc2C(=O)N2CCOCC2)cc1 | -11.2% |
| Cc1cc(NC(=O)C2CCN(c3nnc(C)c(C)c3C#N)CC2)no1 | 0.58% |
| Cc1ccc(S(=O)(=O)Nc2cnn(C3CCOCC3)c2)cc1C | 2.28% |
| CNc1nc(C(=O)NCc2cccnc2N(C)C)cs1 | 1.65% |
| CC(C)Cc1noc(CNc2cccc(-c3nnnn3C)c2)n1 | -11% |
| Cc1nc(CN2CCCC(NCc3ccc(C(N)=O)cc3)C2)no1 (stereo not given) | -4.31% |
| CC(Oc1ccccc1C(F)(F)F)C(=O)NCCC(=O)N(C)C (stereo not given) | 0.999% |
| Nc1nnc(CCCNC(=O)c2ccc(C3CCCNC3)cc2)s1 (stereo not given) | 8.02% |
| CC(C)COCc1cncc2c1CCN(C(=O)c1cscn1)C2 | -2.6% |
| CS(=O)(=O)NCC1CCCN(C(=O)c2cccc(F)c2)C1 (stereo not given) | -6.44% |
| CCOCCS(=O)(=O)Cc1ccn(-c2cccc(F)c2)n1 | -10.1% |
| COc1cccc(-c2cc(C(=O)NCCCC(F)(F)F)[nH]n2)c1 | 30.9% |
| c1cc(-c2n[nH]cc2-c2ccnc(N3CCCCCC3)n2)ccn1 | 0.607% |
| CC(NC(=O)NCCCN(C)S(C)(=O)=O)c1ccc(F)cc1 (stereo not given) | 16.8% |
| CN(C)C(=O)CN1CCCC(Cc2ccc(N3CCCC3)nn2)C1 (stereo not given) | -9.12% |
| Cc1ccc(CC(=O)NC(C)C(=O)N2CCS(=O)(=O)CC2)s1 (stereo not given) | -1.34% |
| COc1cccc(-c2noc(C3CCN(Cc4ccccc4C)C3)n2)c1 (stereo not given) | 13.9% |

| Compound | cytotoxicity at 70.5 h |
| --- | --- |
| Cc1nc(CN2CCCC(NCCOc3ccccc3C#N)C2)no1 (stereo not given) | -2.51% |
| COCCCS(=O)(=O)N1CCN(C(=O)CO)CC1 | -0.333% |
| CC(C)c1nnc(CCC(=O)N2CCCC(c3cnccn3)C2)o1 (stereo not given) | -9.44% |
| Cc1cc(NC(=O)Cn2nc(C)c(C#N)c2N)ccc1Br | -7.3% |
| O=C(NCCCNc1ccc(C(F)(F)F)cn1)c1ccc(F)cc1F | -4.42% |
| CCCc1nnc(N[C@H](C)c2ccc(OC)cc2)o1 | -10.6% |
| Cn1cc(CN2CCCC(CCCc3ccccn3)(C(N)=O)C2)cn1 (stereo not given) | -8.02% |
| Cc1noc(C)c1-c1cncc(C2CCCN2Cc2nccs2)n1 (stereo not given) | -9.87% |
| CC1CCc2n[nH]c(C(=O)N3CCc4c(nc(N(C)C)[nH]c4=O)C3)c2C1 (stereo not given) | -13.8% |
| CCC1=NC2(CCC(C(=O)Nc3ccc(F)cc3)CC2)C(=O)N1C (stereo not given) | -5.04% |
| CC(C)NC(=O)N1CCc2ncnc(-c3ccncc3)c2CC1 | -3.38% |
| Cc1cc(C2CN(CC(=O)NCc3ccco3)CCO2)ccc1F (stereo not given) | -11.9% |
| Cc1cc(OCC(=O)N2CCCC(c3nc(C)c(C)s3)C2)no1 (stereo not given) | 11.5% |
| O=C(c1cc[nH]n1)N1CCCC(c2cc(C(F)(F)F)[nH]n2)C1 (stereo not given) | -17.8% |
| Cc1cc(CN(C)C(=O)NC2CCN(S(C)(=O)=O)CC2)no1 | -9.54% |
| CN1CC(C(=O)N(C)Cc2cc(-c3cccnc3)no2)NC1=O (stereo not given) | -8.52% |
| CCn1cc(C2CCN(Cc3ccnc(N(C)C)c3)CC2)cn1 | -4.12% |
| O=C(c1cc[nH]n1)N1CCCC1c1cnccn1 (stereo not given) | -10.5% |
| CN(C)[C@H]1CCN(c2nc(C(C)(C)C)nc3c2cnn3C)C1 | 27.9% |
| COCCOc1cc(C)ccc1NC(=O)N(C)Cc1cnn(C)c1 | -13.2% |
| Cn1cc(CN2CCOC(c3cccc(-c4cccc(F)c4)n3)C2)cn1 (stereo not given) | -4.34% |
| Cc1ccc(-c2nc(CN3CCOCS3(=O)=O)c(C)o2)cc1 | -0.637% |
| Cc1noc(C)c1-c1cc(C2CCNCC2)ccn1 | 3.08% |

| Compound | cytotoxicity at 70.5 h |
| --- | --- |
| COCCN(Cc1cc(O)nc2ccccc12)C(=O)NC(C)C | -14.7% |
| Fc1cnc(N2CCC3(CCCN(c4nncs4)C3)C2)nc1 (stereo not given) | -6.18% |
| COc1ccc(CN2C[C@@H](F)[C@@H](OCc3nc4ccccc4[nH]3)C2)cn1 | -2.98% |
| Cc1c(NCCCOc2cccc(C#N)c2)cccc1C(N)=O | 6.97% |
| CCOCCN1CCN(CC(=O)N2CCCC2)CC1CC (stereo not given) | -4.43% |
| Cc1ccc(CN2CCC[C@]3(C(=O)O)CN(c4ncccn4)C[C@@H]3C2)o1 | 0.612% |
| COc1ncccc1CNCc1c(C(C)C)nn(C)c1Cl | -5.22% |
| Fc1ccc(C(CNc2ccncn2)N2CCCCC2)cc1 (stereo not given) | -13.6% |
| O=S(=O)(C1CC1)N1C[C@@H]2COC[C@]2(COc2ccccn2)C1 | -18.1% |
| Cc1c(-c2cc(C(=O)N3CCc4ncc(Cl)cc4C3)on2)cnn1C | 35% |
| O=S(=O)(Cc1c(F)cccc1F)NCCOc1cccnc1 | 17.9% |
| CCC(N)C(=O)N1CCC(OCc2ccc(Cl)c(Cl)c2)CC1 (stereo not given) | 8.03% |
| CC(C)Oc1cccc(CN(C)C(=O)Nc2cccn(C)c2=O)c1 | 2.82% |
| COc1ccccc1CN1CCC2(CC1)CC(Oc1ccccn1)CO2 (stereo not given) | 47.3% |
| Cn1nc(C2CCN(C(=O)Cc3ccsc3)CC2)c2cccnc21 | -7.5% |
| CCN(CC(=O)NC)S(=O)(=O)c1cnc2c(c1)c(C)nn2C | -14.3% |
| CC1(C(=O)N2CCOCC2)CN(Cc2c[nH]cn2)CCO1 (stereo not given) | -0.532% |
| Cc1ccc(CN[C@@H]2COC[C@H]2c2ccc(F)cc2)cc1C | 3.52% |
| COCC1CN(Cc2cnn(C)c2)Cc2nn(C)cc21 (stereo not given) | -11.4% |
| CC(C)CC(C#N)NC(=O)COC1CCCCC1 (stereo not given) | -8.86% |
| Cc1ccc(N2CC[C@H]3O[C@@H](C(=O)N4CCCO4)CC[C@H]32)nn1 | 0.0406% |
| O=C(C1CCCC1)N1CCCC(c2nc(O)cc(-c3ccncc3)n2)C1 (stereo not given) | 5.93% |
| COc1ccc(CN2CCCCC2Cn2nc(C)nc2C)cc1F (stereo not given) | -1.41% |

| Compound | cytotoxicity at 70.5 h |
| --- | --- |
| CN(CC(N)=O)Cc1cc(Cl)cc2cccnc12 | -8.6% |
| CCN1CCN(CCNC(=O)c2sc(C)nc2C)CC1 | -5.81% |
| O=C(NCCc1ccccc1)NCCN1CCC(c2cccs2)CC1 | 8.49% |
| c1cc(-c2cc(C3CCN(Cc4cncnc4)C3)ccn2)ccn1 (stereo not given) | 0.319% |
| O=C(NCC1CCCCC1)N1C[C@@H]2C[C@H]1CN2 | -7.03% |
| O=C(Cn1cc(C2CC2)nn1)NC(c1cc(F)ccc1F)C1CC1 (stereo not given) | -5.37% |
| COC(=O)c1ccc(CNC(C)c2ccc(S(C)(=O)=O)cc2)cc1 (stereo not given) | -1.14% |
| O=C(NCC1(O)CCc2ccccc2C1)c1cccs1 (stereo not given) | -14.5% |
| CC(C)c1nc2n(n1)CC(NCc1nc(-c3ccsc3)no1)CC2 (stereo not given) | -11.5% |
| COC(=O)c1ncccc1N1CCN(C(=O)CN2CCOCC2)CC1 | 29.5% |
| O=C(Nc1nnn[nH]1)c1ccc(-n2cccc2)c(F)c1 | -9.42% |
| COc1cccc(CC(=O)N2CCCC(c3nncn3C)C2)c1 (stereo not given) | -12.3% |
| N#Cc1cccc(NC(=O)N(CC(F)F)C2CC2)c1 | -2.73% |
| Cc1ccc(S(=O)(=O)n2ccc(C(=O)NCC(F)(F)F)c2)cc1 | 1.3% |
| Cc1cc(NCC2CCS(=O)(=O)C2)n2nc(C)cc2n1 (stereo not given) | 12.6% |
| CC(C)(C)c1cc(C[C@H]2CNCC[C@H]2CC(=O)NCc2cccs2)no1 | -6.24% |
| CN(C)C(=O)Cc1ccc(NC(=O)NC2CCCC2)cc1 | -7.5% |
| CS(=O)(=O)N1CCc2c(cccc2NC(=O)NC2CCCC2)C1 | -3.1% |
| CN1CCN(C(=O)C2CC=CC2)c2ccccc21 | 9.41% |
| COCC(=O)N1CCN2C(=O)OC[C@H]2C1 | 3.16% |
| O=C1CO[C@@H]2CN(Cc3cccs3)C[C@H]2N1Cc1cccnc1 | -10.9% |
| Cc1cc(C)n(CC(C)Nc2nc(C)nc3c2CCNC3)n1 (stereo not given) | -8.55% |
| CCN1CCOC(CNc2nccc(OC)n2)C1 (stereo not given) | -5.64% |
